Reference: patent US8507489B2, “Bicyclic triazoles as protein kinase modulators” (SGX Pharmaceuticals, Inc., priority 2006, dated 2013)

Tests used:
c-MET = c-MET (Homo sapiens, UniProt P08581); assay: MET luminescence-based enzyme assay (Kinase-Glo); format: biochemical
Experimental: The subscript designates positive or negative controls. The Z′ score for a robust screening assay should be ≧0.50. The typical threshold=μ+−3*σ+. Any value that falls below the threshold was designated a “hit”.
MET Luminescence-Based Enzyme Assay
MET kinase (see below), Kinase-Glo™ (Promega Cat#V6712).
Negative controls contained 10 μM staurosporine.

TPR-MET Ba/F3 cells = target: T1, TPR-MET Ba/F3 cells (Homo sapiens, UniProt P08581); assay: 96-well XTT cell survival assay (Ba/F3 cells); format: cell-based; conditions: cells marked (BaF3), 72 hours; read-out: XTT Assay IC50 (BaF3)
T1 construct: TPR-MET Ba/F3 cells were created by stably transducing the human TPR-MET gene into Ba/F3 cells using a retroviral system; fused on or other part: P12270 (Nucleoprotein TPR)
T1 sequence (P08581 whole entry, change not shown, the tested form may be a part): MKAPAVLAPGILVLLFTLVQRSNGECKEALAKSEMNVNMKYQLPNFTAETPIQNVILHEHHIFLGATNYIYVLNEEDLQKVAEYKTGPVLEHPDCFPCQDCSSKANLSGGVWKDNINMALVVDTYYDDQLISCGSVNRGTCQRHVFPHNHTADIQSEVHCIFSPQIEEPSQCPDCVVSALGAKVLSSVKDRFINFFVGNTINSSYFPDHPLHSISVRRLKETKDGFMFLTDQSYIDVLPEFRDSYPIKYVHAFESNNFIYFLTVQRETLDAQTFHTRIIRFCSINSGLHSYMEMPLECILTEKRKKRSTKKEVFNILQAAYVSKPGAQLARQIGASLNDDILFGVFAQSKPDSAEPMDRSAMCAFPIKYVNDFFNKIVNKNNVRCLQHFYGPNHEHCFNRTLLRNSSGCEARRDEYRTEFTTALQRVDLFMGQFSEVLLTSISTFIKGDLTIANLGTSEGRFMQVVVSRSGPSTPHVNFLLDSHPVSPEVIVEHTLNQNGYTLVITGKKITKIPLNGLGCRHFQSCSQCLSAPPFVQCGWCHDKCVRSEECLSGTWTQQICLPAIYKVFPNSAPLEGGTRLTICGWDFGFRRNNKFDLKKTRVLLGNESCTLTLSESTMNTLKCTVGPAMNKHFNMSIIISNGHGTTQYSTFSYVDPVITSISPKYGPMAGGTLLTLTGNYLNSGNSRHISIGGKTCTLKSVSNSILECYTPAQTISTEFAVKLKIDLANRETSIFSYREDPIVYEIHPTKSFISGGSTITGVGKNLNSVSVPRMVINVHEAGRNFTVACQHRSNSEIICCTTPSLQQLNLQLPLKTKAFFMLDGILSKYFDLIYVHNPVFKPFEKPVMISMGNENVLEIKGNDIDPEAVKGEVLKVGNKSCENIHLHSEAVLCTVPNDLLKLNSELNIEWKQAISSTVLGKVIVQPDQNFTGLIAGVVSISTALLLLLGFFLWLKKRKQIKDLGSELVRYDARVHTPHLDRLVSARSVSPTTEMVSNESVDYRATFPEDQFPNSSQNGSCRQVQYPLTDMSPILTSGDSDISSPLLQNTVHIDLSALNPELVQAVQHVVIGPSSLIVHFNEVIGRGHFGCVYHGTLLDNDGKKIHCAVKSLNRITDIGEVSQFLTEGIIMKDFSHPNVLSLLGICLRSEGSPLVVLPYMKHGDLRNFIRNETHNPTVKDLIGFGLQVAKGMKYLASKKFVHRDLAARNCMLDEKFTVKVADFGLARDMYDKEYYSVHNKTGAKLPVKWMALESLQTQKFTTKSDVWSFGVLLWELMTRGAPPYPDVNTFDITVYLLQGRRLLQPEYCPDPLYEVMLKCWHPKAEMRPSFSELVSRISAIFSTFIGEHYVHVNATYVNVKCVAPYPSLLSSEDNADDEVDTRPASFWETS
Experimental: TPR-MET Ba/F3 cells were created by stably transducing the human TPR-MET gene into Ba/F3 cells using a retroviral system. All cell lines were grown in RPMI-1640 supplemented with 1× penicillin/streptomycin and 10% fetal bovine (Invitrogen, Carlsbad, Calif.). The cells were maintained in a 5% CO2 humidified incubator at 37° C.
Compounds were tested in the following assays in duplicate.
96-well XTT assay (Ba/F3 cells): Cells were grown in growth media containing various concentrations of compounds (duplicates) on a 96-well plate for 72 hours at 37° C. The starting cell number was 5000-8000 cells per well and volume was 120 μl. At the end of the 72-hour incubation, 40 μl of XTT labeling mixture (50:1 solution of sodium 3′-[1-(phenylamino-carbonyl)-3,4-tetrazolium]-bis(4-methoxy-6-nitro) benzene sulfonic acid hydrate and Electron-coupling reagent: PMS (N-methyl dibenzopyrazine methyl sulfate) were added to each well of the plate. After an additional 2-6 hours of incubation at 37° C., the absorbance reading at 405 nm with background correction at 650 nm was measured with a spectrophotometer.

c-MET, sequence (P08581 1078-1345 limits assumed): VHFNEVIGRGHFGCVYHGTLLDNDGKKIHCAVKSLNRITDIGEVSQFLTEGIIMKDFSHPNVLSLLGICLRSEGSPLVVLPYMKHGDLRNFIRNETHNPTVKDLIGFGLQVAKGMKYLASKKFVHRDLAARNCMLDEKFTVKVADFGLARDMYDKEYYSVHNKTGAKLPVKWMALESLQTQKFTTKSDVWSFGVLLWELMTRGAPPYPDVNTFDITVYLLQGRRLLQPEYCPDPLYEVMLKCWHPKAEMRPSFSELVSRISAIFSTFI

| SMILES | IC50 (c-MET) | GI50 (TPR-MET Ba/F3 cells) |
| --- | --- | --- |
| CNC(=O)c1ccc(-c2ccc3nnc(Sc4ccc5ncn(C)c5c4)n3n2)cc1F [Compound 19, 2-Fluoro-N-methyl-4-[3-(3-methyl-3H-benzoimidazol-5-ylsulfanyl)-[1,2,4]triazolo[4,3-b]pyridazin-6-yl]-benzamide] | < 100 nM | ≤ 100 nM |
| N#Cc1cccc(-c2ccc3nnc(Sc4cc5cccnc5cc4F)n3n2)c1 [Compound 23, 3-[3-(7-Fluoro-quinolin-6-ylsulfanyl)-[1,2,4]triazolo[4,3-b]pyridazin-6-yl]-benzonitrile] | < 100 nM | ≤ 100 nM |
| N#Cc1cccc(-c2ccc3nnc(Sc4ccc5ncccc5c4)n3n2)c1 [Compound 21, 3-[3-(Quinolin-6-ylsulfanyl)-[1,2,4]triazolo[4,3-b]pyridazin-6-yl]-benzonitrile] | < 100 nM | ≤ 100 nM |
| N#Cc1cccc(-c2ccc3nnc(Sc4ccc5ncsc5c4)n3n2)c1 [Compound 22, 3-[3-(Benzothiazol-6-ylsulfanyl)-[1,2,4]triazolo[4,3-b]pyridazin-6-yl]-benzonitrile] | < 100 nM | 100 to 1000 nM |
| CNC(=O)c1ccc(-c2ccc3nnc(Sc4cc5scnc5cc4F)n3n2)cc1F [Compound 20] | < 100 nM | ≤ 100 nM |
